For 25 molecules, Ki results are on record in patent publication US12479830B2, “Homopiperazinyl and homopiperidinyl quinazolin-4(3H)-one derivatives having multimodal activity against pain” (ESTEVE PHARMACEUTICALS, S.A., priority 2019, dated 2025).

Test [1] addresses Human α2δ-1 subunit of Cav2.2 calcium channel (Homo sapiens, UniProt P54289). The test is described as follows: Human α2δ-1 subunit of Cav2.2 calcium channel assay ([3H]-gabapentin binding). The note with it: binding to the α2δ-1 subunit of voltage-gated calcium channels, expressed as Ki class; + also covers inhibition between 1% and 50%. The procedure:
Human α2δ-1 Subunit of Cav2.2 Calcium Channel Assay
Human α2δ-1 enriched membranes (2.5 μg) were incubated with 15 nM of radiolabeled [^3H]-Gabapentin in assay buffer containing Hepes-KOH 10 mM. pH 7.4. NSB (non specific binding) was measured by adding 10 μM pregabalin. The binding of the test compound was measured at either one concentration (% inhibition at 1 or 10 μM) or five different concentrations to determine affinity values (Ki). After 60 min incubation at 27° C., binding reaction was terminated by filtering through Multiscreen GF/C (Millipore) presoaked in 0.5% polyethyleneimine in Vacuum Manifold Station, followed by 3 washes with ice-cold filtration buffer containing 50 mM Tris-HCl, pH 7.4. Filter plates were dried at 60° C. for 1 h and 30 μL of scintillation cocktail were added to each well before radioactivity reading. Readings were performed in a Trilux 1450 Microbeta radioactive counter (Perkin Elmer).

A further test has as its target T1, Human σ1 receptor (Homo sapiens, UniProt Q99720).
T1 construct: expressed in transfected cells; host or cells: HEK-293
Description: Human σ1 receptor radioligand assay ([3H](+)-pentazocine binding). The note with it: binding to the σ1 receptor, expressed as Ki class; + also covers inhibition between 1% and 50%. On the procedure: Human σ1 Receptor Radioligand Assay
Transfected HEK-293 membranes (7 μg) were incubated with 5 nM of [^3H](+)-pentazocine in assay buffer containing Tris-HCl 50 mM at pH 8. NBS (non-specific binding) was measured by adding 10 μM haloperidol. The binding of the test compound was measured at either one concentration (% inhibition at 1 or 10 μM) or five different concentrations to determine affinity values (Ki). Plates were incubated at 37° C. for 120 minutes. After the incubation period, the reaction mix was then transferred to MultiScreen HTS, FC plates (Millipore), filtered and plates were washed 3 times with ice-cold 10 mM Tris-HCL (pH7.4). Filters were dried and counted at approximately 40% efficiency in a MicroBeta scintillation counter (Perkin-Elmer) using EcoScint liquid scintillation cocktail.

Human α2δ-1 subunit of Cav2.2 calcium channel, sequence (P54289 25-1103): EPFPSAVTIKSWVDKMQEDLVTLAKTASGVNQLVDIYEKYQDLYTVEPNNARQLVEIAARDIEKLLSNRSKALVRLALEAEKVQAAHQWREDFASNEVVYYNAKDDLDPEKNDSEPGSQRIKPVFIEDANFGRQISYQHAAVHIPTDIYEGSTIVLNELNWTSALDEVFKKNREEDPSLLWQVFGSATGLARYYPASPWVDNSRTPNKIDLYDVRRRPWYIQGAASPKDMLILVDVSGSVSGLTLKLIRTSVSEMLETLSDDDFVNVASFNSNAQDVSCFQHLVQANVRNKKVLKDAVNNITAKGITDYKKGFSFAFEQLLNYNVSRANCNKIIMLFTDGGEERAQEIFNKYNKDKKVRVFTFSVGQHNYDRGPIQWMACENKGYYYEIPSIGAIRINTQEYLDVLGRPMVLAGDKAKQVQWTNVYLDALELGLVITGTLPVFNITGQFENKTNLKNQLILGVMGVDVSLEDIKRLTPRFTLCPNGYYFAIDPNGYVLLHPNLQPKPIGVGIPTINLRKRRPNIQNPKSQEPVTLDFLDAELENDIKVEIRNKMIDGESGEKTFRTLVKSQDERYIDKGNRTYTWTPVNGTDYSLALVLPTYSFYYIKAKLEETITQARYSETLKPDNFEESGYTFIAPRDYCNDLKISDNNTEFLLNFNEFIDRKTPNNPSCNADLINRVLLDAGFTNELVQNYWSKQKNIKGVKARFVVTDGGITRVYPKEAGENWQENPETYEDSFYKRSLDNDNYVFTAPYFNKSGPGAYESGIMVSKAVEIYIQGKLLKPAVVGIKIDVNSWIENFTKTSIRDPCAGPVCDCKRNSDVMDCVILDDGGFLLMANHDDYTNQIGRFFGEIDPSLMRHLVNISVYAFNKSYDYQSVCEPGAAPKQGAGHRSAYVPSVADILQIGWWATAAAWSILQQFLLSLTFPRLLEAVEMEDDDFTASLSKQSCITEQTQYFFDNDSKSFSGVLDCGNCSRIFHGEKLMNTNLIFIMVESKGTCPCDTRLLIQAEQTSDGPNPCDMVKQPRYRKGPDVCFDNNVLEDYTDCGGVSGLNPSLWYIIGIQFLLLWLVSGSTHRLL
T1 sequence (Q99720 whole entry): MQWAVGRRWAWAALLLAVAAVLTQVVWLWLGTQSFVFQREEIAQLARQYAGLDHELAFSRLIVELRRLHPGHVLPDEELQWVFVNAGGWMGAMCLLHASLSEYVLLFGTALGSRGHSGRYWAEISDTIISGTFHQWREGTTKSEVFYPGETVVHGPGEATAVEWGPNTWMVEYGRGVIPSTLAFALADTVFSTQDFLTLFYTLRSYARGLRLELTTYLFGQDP

As usually defined, the Ki is the equilibrium dissociation constant of an inhibitor or competing ligand from its target. As for `CCC[C@H](c1nc2cc(F)c(F)cc2c(=O)n1CC)N1CCCN(C)CC1` [Example 232, (R)-3-ethyl-6,7-difluoro-2-(1-(4-methyl-1,4-diazepan-1-yl)butyl)quinazolin-4(3H)-one], the Ki (in test [1]; on Human σ1 receptor) was below 0.5 µM in each case.
`CCCC(c1nc2ccc(Br)cc2c(=O)[nH]1)N1CCCN(C)CC1` (centres unmarked) [Example 122, 6-bromo-2-(1-(4-methyl-1,4-diazepan-1-yl)butyl)quinazolin-4(3H)-one]: the Ki in test [1] is above 5 µM; on Human σ1 receptor, 0.5 to 1 µM.
For `CCCC(c1nc2ccc(Br)c(C)c2c(=O)n1CC)N1CCCNCC1` (centres unmarked) [Example 41, 2-(1-(1,4-diazepan-1-yl)butyl)-6-bromo-3-ethyl-5-methylquinazolin-4(3H)-one], in that order: above 5 µM and above 1 µM.
For `CCCC(c1nc2ccc(F)cc2c(=O)n1CC(C)C)N1CCCN(C)CC1` (centres unmarked) [Example 43, 6-fluoro-3-isobutyl-2-(1-(4-methyl-1,4-diazepan-1-yl)butyl)quinazolin-4(3H)-one], in that order: below 0.5 µM and below 0.5 µM.
With `CCCC(c1nc2ccc(Br)cc2c(=O)n1CC)N1CCN(C)CC(C)(C)C1` (centres unmarked) [Example 30, 6-bromo-3-ethyl-2-(1-(4,6,6-trimethyl-1,4-diazepan-1-yl)butyl)quinazolin-4(3H)-one], the figures for the Ki (in test [1]; at Human σ1 receptor) were above 5 µM and above 1 µM, respectively.
Taken in the same sequence, the figures for `CCC[C@H](c1nc2cc(OC)c(F)cc2c(=O)n1CC)N1CCCN(CC)CC1` [Example 231, (R)-3-ethyl-2-(1-(4-ethyl-1,4-diazepan-1-yl)butyl)-6-fluoro-7-methoxyquinazolin-4(3H)-one] were below 0.5 µM and 0.5 to 1 µM.
For `CCC[C@@H](c1nc2ccc(F)cc2c(=O)n1CC)N1CCCN[C@H](C)C1` [Example 146], in that order: above 5 µM and above 1 µM.
Consider `CCCC(c1nc2ncc(F)cc2c(=O)n1CC1CC1)N1CCCN(CC)CC1` (centres unmarked) [Example 185, 3-(cyclopropylmethyl)-2-(1-(4-ethyl-1,4-diazepan-1-yl)butyl)-6-fluoropyrido[2,3-d]pyrimidin-4(3H)-one], for which the Ki in test [1] was below 0.5 µM; at Human σ1 receptor, above 1 µM.
For `CCC[C@H](c1nc2ccc(Cl)cc2c(=O)n1C)N1CC[C@H](C)N(C)CC1` [Example 254, 6-chloro-2-((R)-1-((S)-4,5-dimethyl-1,4-diazepan-1-yl)butyl)-3-methylquinazolin-4(3H)-one], in that order: above 5 µM and below 0.5 µM.
Taken in the same sequence, the figures for `CCC[C@H](c1nc2ncc(Br)cc2c(=O)n1CC)N1CCNC[C@@H](C)C1` [Example 199, 6-bromo-3-ethyl-2-((R)-1-((R)-6-methyl-1,4-diazepan-1-yl)butyl)pyrido[2,3-d]pyrimidin-4(3H)-one] were below 0.5 µM and above 1 µM.
For `CCC[C@H](c1nc2cc(Cl)c(Cl)cc2c(=O)n1CC)N1CCNC[C@H](C)C1` [Example 109, 6,7-Dichloro-3-ethyl-2-((R)-1-((S)-6-methyl-1,4-diazepan-1-yl)butyl)quinazolin-4(3H)-one], in that order: below 0.5 µM and above 1 µM.
Regarding `CCCC(c1nc2cc(C#N)ccc2c(=O)n1CC)N1CCCN(C)CC1` (centres unmarked) [Example 9, 3-ethyl-2-(1-(4-methyl-1,4-diazepan-1-yl)butyl)-4-oxo-3,4-dihydroquinazoline-7-carbonitrile], the Ki is below 0.5 µM in test [1] and above 1 µM on Human σ1 receptor.
For `CCCC(c1nc2cc(F)c(Br)cc2c(=O)n1C)N1CCCN(C)CC1` (centres unmarked) [Example 77, 6-bromo-7-fluoro-3-methyl-2-(1-(4-methyl-1,4-diazepan-1-yl)butyl)quinazolin-4(3H)-one], in that order: 0.5 to 5 µM and below 0.5 µM.
Taken in the same sequence, the figures for `CCCC(c1nc2ncc(Br)cc2c(=O)n1CC)N1CCCNCC1` (centres unmarked) [Example 177, 2-(1-(1,4-diazepan-1-yl)butyl)-6-bromo-3-ethylpyrido[2,3-d]pyrimidin-4(3H)-one] were below 0.5 µM and above 1 µM.
As for `CCC[C@H](c1nc2ccc(Br)cc2c(=O)n1CC)N1CCN(C)C[C@@H](COC)C1` [Example 106, 6-bromo-3-ethyl-2-((R)-1-((R)-6-(methoxymethyl)-4-methyl-1,4-diazepan-1-yl)butyl)quinazolin-4(3H)-one], the Ki was below 0.5 µM in test [1] and above 1 µM on Human σ1 receptor.
Taken in the same sequence, the figures for `CCCC(c1nc2ncccc2c(=O)n1CC)N1CCCN(CC)CC1` (centres unmarked) [Example 178, 3-ethyl-2-(1-(4-ethyl-1,4-diazepan-1-yl)butyl)pyrido[2,3-d]pyrimidin-4(3H)-one] were below 0.5 µM and above 1 µM.
Regarding `CCCC(c1nc2ccc(Br)cc2c(=O)n1CCOC)N1CCCN(C)CC1` (centres unmarked) [Example 14, 6-bromo-3-(2-methoxyethyl)-2-(1-(4-methyl-1,4-diazepan-1-yl)butyl)quinazolin-4(3H)-one], the Ki was 0.5 to 5 µM in test [1] and above 1 µM at Human σ1 receptor.
Taken in the same sequence, the figures for `CCC[C@@H](c1nc2ccc(Br)cc2c(=O)n1CC)N1CCN[C@H](C)CC1` [Example 94, 6-bromo-3-ethyl-2-((S)-1-((R)-5-methyl-1,4-diazepan-1-yl)butyl)quinazolin-4(3H)-one] were 0.5 to 5 µM and above 1 µM.
Take `CCC[C@H](c1nc2c(F)cc(Cl)cc2c(=O)n1CC)N1CCCN(C)CC1` [Example 234, (R)-6-chloro-3-ethyl-8-fluoro-2-(1-(4-methyl-1,4-diazepan-1-yl)butyl)quinazolin-4(3H)-one]: the Ki in test [1] is below 0.5 µM; at Human σ1 receptor, 0.5 to 1 µM.
For `CCC[C@H](c1nc2ccc(Br)cc2c(=O)n1CC)N1CCN(C)C[C@H](C)C1` [Example 36, 6-bromo-2-((R)-1-((S)-4,6-dimethyl-1,4-diazepan-1-yl)butyl)-3-ethylquinazolin-4(3H)-one], in that order: below 0.5 µM and 0.5 to 1 µM.
For `CCC[C@@H](c1nc2ccncc2c(=O)n1CC)N1CCN(C)C[C@H](C)C1` [Example 170, 2-((S)-1-((S)-4,6-dimethyl-1,4-diazepan-1-yl)butyl)-3-ethylpyrido[4,3-d]pyrimidin-4(3H)-one], in that order: 0.5 to 5 µM and above 1 µM.
Taken in the same sequence, the figures for `CCC[C@@H](c1nc2cc(Cl)c(Cl)cc2c(=O)n1CC)N1CCN(C)C[C@H](C)C1` [Example 133, 6,7-dichloro-2-((S)-1-((S)-4,6-dimethyl-1,4-diazepan-1-yl)butyl)-3-ethylquinazolin-4(3H)-one] were above 5 µM and above 1 µM.
With `CCCC(c1nc2cccnc2c(=O)n1CC)N1CCCNCC1` (centres unmarked) [Example 100, 2-(1-(1,4-diazepan-1-yl)butyl)-3-ethylpyrido[3,2-d]pyrimidin-4(3H)-one], the Ki is above 5 µM in test [1] and above 1 µM on Human σ1 receptor.
For `CCC[C@H](c1nc2ccc(Br)cc2c(=O)n1CC)N1CCN(C)C[C@@H](CO)C1` [Example 125, 6-bromo-3-ethyl-2-((R)-1-((R)-6-(hydroxymethyl)-4-methyl-1,4-diazepan-1-yl)butyl)quinazolin-4(3H)-one], in that order: 0.5 to 5 µM and 0.5 to 1 µM.
For `CCCC(c1nc2ccc(F)cc2c(=O)n1CC)C1CCCN(C)CC1` (centres unmarked) [Example 267, 3-ethyl-6-fluoro-2-(1-(1-methylazepan-4-yl)butyl)quinazolin-4(3H)-one], in that order: below 0.5 µM and 0.5 to 1 µM.
